Reference: patent US8372819B2, “Methods and compositions for targeting skip” (Salk Institute for Biological Studies, priority 2010, dated 2013)
Values belong to the molecule of their own block, whether it stands above or below them. Where a SMILES comes first, the peptide text is derived from it. The star is where a group is joined. Cbz = O=C(OCc1ccccc1)*

Assays:
SKIP mRNA = SKIP mRNA levels in 293 cells exposed to FP; type: cell-based; details: 10 nM FP
Method: (§1) SKIP expression is blocked by Flavopiridol (FP), a CDK inhibitor currently in clinical trials. […] SKIP protein levels decline starting at lOnM FP, though mRNA levels are unaffected at 10 nM FP.

[1] = test system: Ser2-phosphorylated RNAPII; experiment: Immunoblot of Ser2-phosphorylated RNAPII in response to FP; type: cell-based
Method: FIG. 8. Immunoblot detection of SKIP and Ser2-phosphorylated RNAPII in response to increasing levels of flavopiridol.
In contrast, levels of Ser2-phosphorylated RNAPII decline with exposure to much higher concentrations of FP (>100 nM).

SKIP protein = experiment: Immunoblot of endogenous SKIP protein in 293 cells exposed to FP; type: cell-based; details: 293 cells exposed for 18 hr
Method: as §1

p21 = experiment: Immunoblot of p21 protein in U2OS cells; type: cell-based, human; details: U2OS cells transfected with control or SKIP siRNA, proteasome inhibitor treatment
Text: As observed for many essential proteins, depletion of SKIP by siRNA increases endogenous p53 levels. […] To assess whether SKIP plays a role in the normal p53 stress response, endogenous p53 was induced in two human cancer cell lines, U2OS (osteosarcoma) and HCT116 (colon cancer), using the chemotherapeutic DNA damage agents etoposide (U2OS cells) or doxorubicin (HCT116 cells). […] Consequently, PUMA expression was elevated in SKIP-depleted cells, and increased further with DNA damage (FIG. 1). In contrast, both basal and stress-induced p21 mRNA levels decreased in SKIP-depleted HCT116 or U2OS cells, compared with cells treated with a control siRNA, accompanied by a strong block to p21 protein expression, as detected by immunoblot (FIG. 1A, 1B, lanes 1-3 and 4-6). Similar results were obtained using two different SKIP siRNAs.
To determine whether SKIP might also affect p21 protein stability, the rate of p21 protein turnover was measured in SKIP knockdown cells in the absence of stress. Forty-eight hours after transfection with control or SKIP siRNA, U2OS cells were treated with cycloheximide (CHX) to prevent new protein synthesis, and the decay of endogenous p21 protein was measured.

p21 mRNA = experiment: TGF-β induction of p21 mRNA in MDA-MB-231 cells (qRT-PCR); type: cell-based, human; details: TGF-β 5 ng/mL
Method: FIG. 5. SKIP is required for Nutlin and TGF-β-induced p21 gene expression. (A, left) qRT-PCR analysis of p21 and PUMA mRNA levels. U2OS cells were transfected with control or SKIP siRNA for 48 h, and incubated in the presence or absence of Nutlin (10 μM) for 18 h. (Right, lanes 1-4) Protein lysates were subjected to immunoblot analysis. (B) qRT-PCR analysis of p21 mRNA levels. MDA-MB-231 cells were transfected with control or SKIP siRNA for 48 h, followed by incubation in the presence or absence of TGF-β (5 ng/mL) for the indicated times. (C, lanes 1-6) Immunoblot analysis of SKIP, Smad2/3, p53, p21, or GAPDH in cells transfected with control or SKIP siRNA for 48 h, followed by treatment with TGF-β (5 ng/mL) for the indicated times. (D, left) qRT-PCR analysis of p21 mRNA levels in HCT 116 p53^−/− cells, H1299 cells, HeLa cells and MDA-MB-231 cells transfected with control or SKIP siRNA for 48 h. (Right, lanes 1-8) Protein lysates were subjected to immunoblot analysis. All of the mRNA expression levels were normalized to GAPDH mRNA, and are represented as fold increase or decrease over untreated cells. Error bars represent the standard deviation obtained from three independent experiments. […]

[2] = molecular target: T1, SKIP (Ski-interacting protein), endogenous (human, UniProt Q13573 2-536); experiment: GST pull-down from HCT116 nuclear extract, Western blot
T1 construct: Endogenous protein of human HCT116 nuclear extract (pull-downs) or U2OS whole-cell lysate (co-IP); also called SNW1; NCoA62
T1 sequence: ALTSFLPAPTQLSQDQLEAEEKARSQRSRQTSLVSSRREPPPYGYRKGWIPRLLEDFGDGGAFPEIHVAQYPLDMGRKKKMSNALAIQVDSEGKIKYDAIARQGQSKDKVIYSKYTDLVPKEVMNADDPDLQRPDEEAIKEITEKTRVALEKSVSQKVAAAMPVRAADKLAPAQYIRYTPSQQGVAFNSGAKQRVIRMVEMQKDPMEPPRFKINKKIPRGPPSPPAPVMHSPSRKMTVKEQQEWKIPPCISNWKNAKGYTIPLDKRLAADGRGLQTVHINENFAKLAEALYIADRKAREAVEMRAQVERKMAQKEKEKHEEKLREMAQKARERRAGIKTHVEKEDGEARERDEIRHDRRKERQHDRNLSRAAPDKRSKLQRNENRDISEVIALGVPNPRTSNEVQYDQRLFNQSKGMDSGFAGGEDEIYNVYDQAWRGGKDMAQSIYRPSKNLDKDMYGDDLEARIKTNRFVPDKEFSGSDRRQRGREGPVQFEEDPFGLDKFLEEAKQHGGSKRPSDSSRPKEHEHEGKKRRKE
Method: SST fusion constructs were expressed in BL21 *Escherichia coli* cells, and crude bacterial lysates were prepared by sonication in GST lysis buffer (25 mM Tris at pH 7.5, 150 mM NaCl, 1 mM EDTA, protease inhibitor). Approximately 10 μg of the appropriate GST fusion proteins was incubated with precleared HCT116 nuclear extract for 2 h at 4° C. The binding reaction was then added with 30 μL of glutathione-Sepharose beads and mixed for another 1 h at 4° C. The beads were washed four times with the above GST lysis buffer, separated on a 10% SDS-PACE, and analyzed by Western blotting.
(§2) Figure 4: FIG. 4. SKIP associates with unspliced p21 mRNA and recruits U2AF65. (A) Immunoblot analysis of the interaction between SKIP, U2AF35, and U2AF65 in GST pull-down experiments from HCT116 cell nuclear extract. (B) Total proteins were extracted from U2OS cells for coimmunoprecipitation. Immunoprecipitates were examined by Western blot using antibodies against SKIP, U2AF35, or U2AF65. (C) ChIP analysis of U2AF65 binding on the p21 and PUMA genes. U2OS cells were transfected with control or SKIP siRNA for 48 h, followed by treatment with vehicle or etoposide (20 μM) for 6 h. Protein extracts were immunoprecipitated with antibodies against U2AF65. ChIP-enriched DNA was quantified by qPCR with the indicated primers in FIG. 2A. […] Immunoprecipitated p21 mRNA was detected using qRT-PCR with the indicated primers.

[3] = molecular target: T1, SKIP (Ski-interacting protein), …; experiment: co-immunoprecipitation with SKIP antibody from U2OS whole-cell lysate, Western blot
Method: The immune complexes were subjected to SDS-PAGE followed by immunoblotting with the secondary antibody. For RNA-IP experiments, cells were lysed in ice-cold NET-2 buffer (50 mM Tris-HCL at pH 7.4, 300 mM NaCl, 0.5% [vol/vol] Nonidet P-40, 1× complete protease inhibitors [Roche], 100 U/mL RNase OUT [Invitrogen]). The lysate was incubated with the indicated antibodies or control normal rabbit/mouse IgG on a rotator overnight at 4° C., followed by addition of protein A/G agarose (Invitrogen) for 2 h at 4° C. Beads were then washed four times using the NET-2 buffer. Immunoprecipitated RNA was then extracted using Trizol and reverse-transcribed with random hexamers. The resulting cDNA was analyzed with the indicated primer sets (Table 5).
as §2, with “U2OS cells were transfected with control or SKIP siRNA for 48 h, followed by treatment with vehicle or etoposide (20 μM) for 6 h. Protein extracts were immunoprecipitated with antibodies against U2AF65.” left out

Molecule: CN1CC[C@H](c2c(O)cc(O)c3c(=O)cc(-c4ccccc4Cl)oc23)[C@H](O)C1 [FP, Flavopiridol]
SKIP mRNA levels (SKIP mRNA): unaffected
FP concentration at which levels of Ser2-phosphorylated RNAPII decline [1]: > 100 nM
FP concentration at which SKIP protein levels start to decline (SKIP protein): lO

Molecule: CC(C)C[C@@H](C=O)NC(=O)[C@H](CC(C)C)NC(=O)[C@H](CC(C)C)NC(=O)OCc1ccccc1 [MG132] (Cbz-Leu-Leu-Leu-aldehyde)
p21 protein levels (p21): elevated p21 protein levels

Molecule: TGF-β
time of peak p21 mRNA levels after induction (p21 mRNA): 4 h

binding result [2]: no binding
B1: GST-U2AF35 (other, UniProt Q01081 1-240, looked up)
chain: MAEYLASIFGTEKDKVNCSFYFKIGACRHGDRCSRLHNKPTFSQTIALLNIYRNPQNSSQSADGLRCAVSDVEMQEHYDEFFEEVFTEMEEKYGEVEEMNVCDNLGDHLVGNVYVKFRREEDAEKAVIDLNNRWFNGQPIHAELSPVTDFREACCRQYEMGECTRGGFCNFMHLKPISRELRRELYGRRRKKHRSRSRSRERRSRSRDRGRGGGGGGGGGGGGRERDRRRSRDRERSGRF
notes: not shown: glutathione-S-transferase (GST) fusion tag

binding result [3]: no binding
B2: U2AF35 (other, human, UniProt Q01081 2-240, looked up)
chain: AEYLASIFGTEKDKVNCSFYFKIGACRHGDRCSRLHNKPTFSQTIALLNIYRNPQNSSQSADGLRCAVSDVEMQEHYDEFFEEVFTEMEEKYGEVEEMNVCDNLGDHLVGNVYVKFRREEDAEKAVIDLNNRWFNGQPIHAELSPVTDFREACCRQYEMGECTRGGFCNFMHLKPISRELRRELYGRRRKKHRSRSRSRERRSRSRDRGRGGGGGGGGGGGGRERDRRRSRDRERSGRF
notes: Endogenous protein from human cancer cell lines; also called nuclear U2AF35
